# Read-outs that look alike come from different tables or passages of the source.
# Assays:
# hTREK-1 [1] = molecular target: T1, hTREK-1 (Homo sapiens, UniProt O95069)
# T1 sequence (O95069 1-422 isoform O95069-3): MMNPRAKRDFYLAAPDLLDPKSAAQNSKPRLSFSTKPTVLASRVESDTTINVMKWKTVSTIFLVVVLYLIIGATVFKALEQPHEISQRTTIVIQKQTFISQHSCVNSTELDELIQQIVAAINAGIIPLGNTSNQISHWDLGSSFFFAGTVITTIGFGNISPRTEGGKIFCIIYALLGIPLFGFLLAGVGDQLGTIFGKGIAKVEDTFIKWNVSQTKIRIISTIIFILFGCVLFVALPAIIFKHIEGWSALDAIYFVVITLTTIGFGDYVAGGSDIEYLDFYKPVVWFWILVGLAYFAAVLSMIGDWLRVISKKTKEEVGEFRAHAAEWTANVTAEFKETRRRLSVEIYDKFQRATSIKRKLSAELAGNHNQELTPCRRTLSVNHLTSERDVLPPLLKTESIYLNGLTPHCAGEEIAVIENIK
# naive HEK293 cells = test: Thallium flux assay on naive (untransfected) HEK293 cells; settings: 10 µM
# Protocol: Cells were plated in 384-well plates with black walls and clear bottom coated with poly-D-lysine (Greiner Bio-One, Kremsmünster, Austria, #781946) at a density of 25 000 cells/well from a 1 250 000 cells/mL solution. Cell counting was performed with an automatic cell counter (Countness II FL, ThermoFisher, Waltham, MA, USA) with addition of trypan blue 0.2% to exclude dead cells. 24 h after plating, cells were incubated with FluxOR II green probe (ThermoFisher) for 1 h in the dark, accordingly to the supplier’s protocol (‘no wash’ procedure) with addition of 77 mg/mL probenecide. […] Fluorescence was measured every 3 s during 1 min (excitation 485 nm, emission 515 nm), and 0.5 mM thallium was added to the wells after a 20 s baseline. […] Fluorescence is normalized using the formula (F − F0)/F0 where F0 is the average fluorescence during the first 18 s of the recording. ΔFmax/F0 is calculated between 18 and 33 s (−2 to 13 s relative to thallium addition). For dose–response curves, ΔFmax/F0 are expressed as %vehicle (100% corresponding to the average ΔFmax/F0 measured in vehicle-treated wells). For high throughput screening, Z scores were calculated as(1) Z=Xsample−X¯neg/σneg where X represents ΔFmax/F0 and σ the ΔFmax/F0 standard deviation. ‘neg’ represents negative controls (vehicle-treated wells). […]
# hTREK-1 [2] = molecular target: T1, hTREK-1; test: Whole cell patch clamp on HEK-hTREK-1 cells; type: cell-based; parameters: transfected with the human Kcnk2 (NM_001017424) or Kcnk10 (NM_021161) ORF cloned in a pEZ-M02 expression vector
# hTREK-1 [3] = molecular target: T1, hTREK-1; test: cell-based
# [4] = tested on: WT and TREK-1 KO littermates of C57Bl6/J background; test: Horizontal bar test in WT and TREK-1 KO littermates; type: in vivo, mouse; settings: i.p. 50 mg/kg, 15 min
# From the text: (§1) TREK-1^−/− mice were generated by crossing mice carrying an allele of the Kcnk2 gene in which exon 3 was floxed (RRID:MGI:3050295) with ZP3-Cre mice (RRID:MGI:3835429), both in C57Bl6/J background. F1 females, producing TREK-1^+/− oocytes, were crossed with WT males. TREK-1^+/− F2 offspring not carrying the ZP3-Cre transgene were finally crossed together to generate TREK-1^−/− and TREK-1^+/+ littermates, which were weaned in separate cages after genotyping using 2 mm tail samples taken at 10 days of age. Animals were identified by digital tattoos at 3 weeks of age.
# A 13 cm long, 2 mm diameter metal bar was placed horizontally between 2 rods at a 30 cm height. […] After gently releasing the tail, the time taken by mice to climb on the bar (grabbing it with their four paws) was monitored.
# (§2) To search for possible adverse effects induced by LPS2336 in vivo, we submitted CD1 mice to different confounding tests aiming at characterizing motor coordination, balance, muscle strength and spontaneous locomotor activity. […] Finally, we monitored the body temperature of mice for 45 min after intraperitoneal injection of LPS2336 at 40 mg/kg and could observe hypothermia in both WT and TREK-1 KO (−2.4 and −2.6 °C, respectively) following LPS2336 treatment (Figure 7F,G).
# CD1 mice [5] = test: Open field test in CD1 mice; type: in vivo, mouse; settings: i.p., 15 min before open field test
# Protocol: (§3) Mice were placed in the center of a 50 × 50 cm arena with 45 cm high walls. Animals were filmed for 10 min and the distance traveled was measured using video-tracking software (Viewpoint Videotrack 5.13.0.10).
# as §2, with “activity. […] To assess the contribution of TREK-1 to this adverse effect, we submitted TREK-1 knock-out mice (which are of the C57Bl6/J background) to the same test, 15 min following the injection of 50 mg/kg LPS2336. […] We finally submitted the mice to a third test consisting in observing their spontaneous locomotion in an open arena (open field test).” for “activity.”
# CD1 mice [6] = test: Hargreaves test in carrageenan-induced paw inflammation; type: in vivo, mouse
# [7] = tested on: WT and TREK-1 KO littermates of C57Bl6/J background; test: Open field test in WT and TREK-1 KO littermates; type: in vivo, mouse; settings: i.p. 50 mg/kg
# From the text: as §1, §3, §2
# [8] = tested on: WT and TREK-1 KO littermates of C57Bl6/J background; test: Body temperature monitoring (rectal probe); type: in vivo, mouse; settings: i.p. 40 mg/kg, 15 min after injection minus before
# From the text: as §1
# Body temperature was measured using a rectal probe in awake animals before and 15, 30 and 45 min after injection of LPS2336.
# as §2, with “activity. […] To assess the contribution of TREK-1 to this adverse effect, we submitted TREK-1 knock-out mice (which are of the C57Bl6/J background) to the same test, 15 min following the injection of 50 mg/kg LPS2336.” for “activity.”
# [9] = 50 µM, HEK-hTREK-1 cells, vs vehicle
compound,measurement,setting,value
N#CCCN1CCC(Cc2ccccc2)CC1 [2a],TREK-1 activation by analogs,hTREK-1 [1],profound decrease in TREK-1 activation
CC1CCN(CC#N)CC1 [2b],TREK-1 activation by analogs,hTREK-1 [1],loss of TREK-1 activation
CCC#CCN1CCC(Cc2ccccc2)CC1 [2c],TREK-1 activation by analogs,hTREK-1 [1],profound decrease in TREK-1 activation
N#CCN1CCCCC1 [2d],TREK-1 activation by analogs,hTREK-1 [1],loss of TREK-1 activation
N#CCCCN1CCC(Cc2ccccc2)CC1 [2e],TREK-1 activation by analogs,hTREK-1 [1],profound decrease in TREK-1 activation
c1ccc(CC2CCN(Cc3ccccc3)CC2)cc1 [2f],TREK-1 activation by analogs,hTREK-1 [1],profound decrease in TREK-1 activation
CCCCN1CCC(Cc2ccccc2)CC1 [2g],TREK-1 activation by analogs,hTREK-1 [1],profound decrease in TREK-1 activation
CCOC(=O)CN1CCC(Cc2ccccc2)CC1 [2h],TREK-1 activation by analogs,hTREK-1 [1],severely impacted TREK-1 activation ability
O=C(O)CN1CCC(Cc2ccccc2)CC1 [2i],TREK-1 activation by analogs,hTREK-1 [1],severely impacted TREK-1 activation ability
NCCN1CCC(Cc2ccccc2)CC1 [2j],TREK-1 activation by analogs,hTREK-1 [1],severely impacted TREK-1 activation ability
NC(=O)CN1CCC(Cc2ccccc2)CC1 [2k],TREK-1 activation by analogs,hTREK-1 [1],severely impacted TREK-1 activation ability
"c1ccc(-c2nn[nH]n2)c(Nc2cccc3c2CCCC3)c1 [BL-1249, reference compound]",effect on fluorescence in naive cells,naive HEK293 cells,no effect
same,concentrations at which active on TREK-1,hTREK-1 [1],active at sub-micromolar concentrations
same,toxicity to HEK-hTREK-1 cells,hTREK-1 [1]; 100 µM,visible cell death
Nc1ccc(Oc2ccc(C(c3ccc(Oc4ccc(N)cc4)cc3)(C(F)(F)F)C(F)(F)F)cc2)cc1 [GI-530159],increase of mean current density recorded at 0 mV,hTREK-1 [2]; [9],9.73 fold
N#CCN1CCC(Cc2ccccc2)CC1 [LPS2336],EC50,hTREK-1 [3],11.8 µM
same,"horizontal bar test, WT vs TREK-1 KO",[4],no difference between WT and TREK-1 KO mice
same,time to climb on horizontal bar in WT littermates,[4]; C57Bl6/J WT,same increase in time to climb
same,increase of mean current density recorded at 0 mV,hTREK-1 [2],10.77 fold
same,dose from which spontaneous locomotion is decreased,CD1 mice [5],≥ 30 mg/kg
same,dose able to reverse the pain phenotype,"CD1 mice [6]; intracerebroventricular, effect similar to 1 µg morphine",100 µg
same,dose at which the analgesic effect reaches a plateau,CD1 mice [6]; intraperitoneal,20 mg/kg
same,time of peak analgesia after injection,CD1 mice [6]; intraperitoneal,15 min
same,dose from which pain thresholds are increased,"CD1 mice [6]; intraperitoneal, carrageenan-injected CD1 mice",≥ 20 mg/kg
same,effect on pain thresholds at the highest intrathecal dose,"CD1 mice [6]; intrathecal, 300 µg (1400 nmol)","slight, non-significant effect"
same,pain relief after intrathecal administration,"CD1 mice [6]; intrathecal, doses up to 300 µg",not effective
same,"open field test, WT vs TREK-1 KO",[7],no difference between WT and TREK-1 KO mice
same,spontaneous locomotion in C57Bl6/J mice,[7],same adverse effect as CD1 mice
same,average Z score in high throughput screening,hTREK-1 [1],3.50 ± 0.24
same,times over the positivity threshold,hTREK-1 [1],3/3
same,"change in body temperature (hypothermia), WT mice",[8]; C57Bl6/J WT,−2.4 °C
same,"change in body temperature (hypothermia), TREK-1 KO mice",[8]; TREK-1 KO,−2.6 °C
O=C(NCCCCN1CCN(Cc2ccccc2)CC1)c1ccc2ccccc2c1 [LPS6257],change in ΔFmax/F0 compared to the vehicle condition,hTREK-1 [1],−70%
"CS(=O)(=O)Nc1ccc(C(=O)NCc2ccc(Cl)cc2Cl)cc1 [ML335, reference compound]",increase of mean current density recorded at 0 mV,hTREK-1 [2]; [9],13.35 fold
same,increase in ΔFmax/F0,hTREK-1 [1],2.60 fold
same,effect of salification on TREK-1 activation,hTREK-1 [1]; 100 µM,increased TREK-1 activation
same,EC50,"hTREK-1 [1]; read-out: EC50 (TREK-1 activation, thallium assay)",6.7 µM
"Cc1cc(Cl)ccc1OCCNC(=O)c1cccs1 [ML402, reference compound]",effect of salification on TREK-1 activation,hTREK-1 [1]; 100 µM,increased TREK-1 activation
"CNCCC(Oc1ccc(C(F)(F)F)cc1)c1ccccc1 (centres unmarked) [fluoxetine, reference compound]",TREK-1 activation (ΔFmax/F0),hTREK-1 [1],54 % of vehicle
"CN1CC[C@]23c4c5ccc(O)c4O[C@H]2[C@@H](O)C=C[C@H]3[C@H]1C5 [morphine, reference compound]",analgesia after intracerebroventricular administration,"CD1 mice [6]; intracerebroventricular, 1 µg (3.5 nmol)",analgesic
same,analgesia after intrathecal administration,"CD1 mice [6]; intrathecal, 3 µg (10.5 nmol)",long-lasting analgesia

# Source: PMC12109561, “LPS2336, a New TREK-1 Channel Activator Identified by High Throughput Screening” (Biomolecules, 2025)
